Laboratory results as given in patent US20080269162A1, “Novel Medicaments for Anti-Retroviral Treatments” (priority 2006, published 2008).
Values joined by “and” are separate entries in the source; they are usually repeats but may differ in a detail not shown here. Equal entries are not always repeated.

Legend:
RT of the NDK virus = target: T1, RT of the NDK virus (Human immunodeficiency virus type 1 group M subtype D, UniProt P18802); assay: Direct inhibitory action on RT of the NDK virus; format: biochemical, HIV; conditions: viral concentration corresponding to RT activity of 81,000 dpm, FIG. 9
T1 construct: host or cells: virus preparation (native virion RT)
Description: (§1) In order to perform these measurements, the method described in detail hereinbefore was followed (Example 2).

RT of the PIC CH virus = assay: Direct inhibitory action on RT of the PIC CH virus; format: biochemical, HIV; conditions: viral concentration corresponding to RT activity of 105,000 dpm, FIG. 8
Description: as §1

CEM cells = assay: In vitro cytotoxicity, number of CEM cells
RT of the UG92029 virus = assay: Direct inhibitory action on RT of the UG92029 virus; format: biochemical, HIV; conditions: viral concentration corresponding to RT activity of 220,000 dpm, FIG. 7
Description: as §1

NDK virus = assay: Number of syncitia in MT4 cell culture infected by NDK virus; format: cell-based, HIV; design: key to Number of Syncitia in the Culture (wells), J3 / Number of Syncitia in the Culture (wells), J4 / Number of Syncitia in the Culture (wells), J5 / Number of Syncitia in the Culture (wells), J6: the absence of syncitia is indicated by a minus (−) sign; the (+), +, ++, ++T signs indicate an increasing number of syncitia in each well; the (+), +, ++, ++T signs indicate an increasing number of syncitia in each well; the (+), +, ++, ++T signs indicate an increasing number of syncitia in each well; the (+), +, ++, ++T signs indicate an increasing number of syncitia in each well; The indication “T” indicates the death of the cells; conditions: 10 μg/mL; for Number of Syncitia in the Culture (wells), J3: day 3; for Number of Syncitia in the Culture (wells), J4: day 4; for Number of Syncitia in the Culture (wells), J5: day 5; for Number of Syncitia in the Culture (wells), J6: day 6
Protocol: Then infection of the cells was carried out by adding to each well, with the exception of those wells being used as control cells, 50 μL of previously titrated virus dilution.
After an additional hour of incubation, the plate was centrifuged and the supernatant containing the residual virus was discarded.
After 3 days of culture, the cells were diluted to half and the syncitia were observed using the inverse microscope from day 3 to day 7 after having been placed in suspension.
In the third case, the MT4 cell culture was preincubated for one hour at 37° C., then the cells were infected, the whole was subjected to incubation for one hour at 37° C., then to centrifugation with the elimination of the supernatant containing the virus that had not penetrated into the cells.
In each of the four types of experiments that have just been described, and as previously indicated, the cells were diluted to half after three days of culture and then the syncitia were observed using the inverted microscope from day 3 to day 7.
In the experiments described in greater detail hereinafter, the absence of syncitia is indicated by a minus (−) sign and the (+), +, ++, ++T signs indicate an increasing number of syncitia in each well.
The indication “T” indicates the death of the cells.

[1] = Continuous, before, during and after infection

Substance: Dextran sulphate
- inhibition of RT (RT of the NDK virus; 0.6 μg/mL): 11%
- inhibition of RT (RT of the NDK virus; 0.8 μg/mL): 18%
- inhibition of RT (RT of the PIC CH virus; 0.6 μg/mL): does not produce any inhibition at all
- inhibition of RT (RT of the PIC CH virus; 0.8 μg/mL): still does not induce any inhibition
- Number of CEM cells (CEM cells; Day 1, 125 μg/mL): 500000 mL⁻¹ and 900000 mL⁻¹
- Number of CEM cells (CEM cells; Day 1, 250 μg/mL): 500000 mL⁻¹ and 900000 mL⁻¹
- Number of CEM cells (CEM cells; Day 1, 1000 μg/mL): 800000 mL⁻¹ and 500000 mL⁻¹
- Number of CEM cells (CEM cells; Day 2, 125 μg/mL): 1.5e+06 mL⁻¹ and 1e+06 mL⁻¹
- Number of CEM cells (CEM cells; Day 2, 250 μg/mL): 1.3e+06 mL⁻¹ and 1.4e+06 mL⁻¹
- Number of CEM cells (CEM cells; Day 2, 500 μg/mL): 1.3e+06 mL⁻¹ and 1.7e+06 mL⁻¹
- Number of CEM cells (CEM cells; Day 2, 1000 μg/mL): 1.3e+06 mL⁻¹ and 1.7e+06 mL⁻¹
- Number of CEM cells (CEM cells; Day 3, 125 μg/mL): 2.3e+06 mL⁻¹ and 2.1e+06 mL⁻¹
- Number of CEM cells (CEM cells; Day 3, 250 μg/mL): 1.9e+06 mL⁻¹
- Number of CEM cells (CEM cells; Day 3, 500 μg/mL): 2.1e+06 mL⁻¹ and 1.5e+06 mL⁻¹
- Number of CEM cells (CEM cells; Day 3, 1000 μg/mL): 2e+06 mL⁻¹ and 2.7e+06 mL⁻¹
- inhibition of RT (RT of the UG92029 virus; 2.5 μg/mL): 6%
- inhibition of RT (RT of the UG92029 virus; 3 μg/mL): 8%
- Number of Syncitia in the Culture (wells), J3 (NDK virus; After infection): −
- Number of Syncitia in the Culture (wells), J4 (NDK virus; After infection): − and +
- Number of Syncitia in the Culture (wells), J5 (NDK virus; After infection): − and ++
- Number of Syncitia in the Culture (wells), J6 (NDK virus; After infection): − and T
- Number of Syncitia in the Culture (wells), J3 (NDK virus; Before infection): −
- Number of Syncitia in the Culture (wells), J4 (NDK virus; Before infection): −
- Number of Syncitia in the Culture (wells), J5 (NDK virus; Before infection): −
- Number of Syncitia in the Culture (wells), J6 (NDK virus; Before infection): −
- Number of Syncitia in the Culture (wells), J3 (NDK virus; [1]): −
- Number of Syncitia in the Culture (wells), J4 (NDK virus; [1]): +
- Number of Syncitia in the Culture (wells), J5 (NDK virus; [1]): ++
- Number of Syncitia in the Culture (wells), J6 (NDK virus; [1]): T
- Number of Syncitia in the Culture (wells), J3 (NDK virus; During infection): −
- Number of Syncitia in the Culture (wells), J4 (NDK virus; During infection): − and (+)
- Number of Syncitia in the Culture (wells), J5 (NDK virus; During infection): − and ++
- Number of Syncitia in the Culture (wells), J6 (NDK virus; During infection): ++ and T
- wells inhibited (NDK virus; cells treated before viral infection): 2 wells out of 2 inhibited
